Patent US20240228469A1, “PCSK9 INHIBITORS AND METHODS OF USE THEREOF” (AstraZeneca AB, priority 2022, published 2024)

Legend:
[1] = target: GSK3β (Glycogen synthase kinase-3 beta) (Homo sapiens, UniProt P49841); assay: Assay 6 GSK3β assay (ThermoFisher Z-Lyte FRET); format: biochemical; settings: ATP Conc: 10 μM, geometric mean; read-out: Assay 6 (GSK3β FRET-Z-Lyte Cr) GMean IC50
Outline: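 Z-Lyte FRET: 0.22-0.92 ng kinase with 2 μM Ser/Thr 09 peptide in HEPES pH 7.5, MgCl2, EGTA, 60 min at room temperature, then 60 min development. Compounds in 1% DMSO, 10-point 3-fold series from 10 μM; sigmoidal dose-response fit.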

PCSK9 = PCSK9 (Homo sapiens, UniProt Q8NBP7, G670E/V474I); assay: Assay 3 PCSK9 LDL-C uptake assay in HepG2 cells; format: cell-based; parameters: TEV site (C); His6 (C); host or cells: added to HepG2 (ATCC #HB-8065); settings: 125 nM PCSK9, pHrodo Red-LDL, read-out: Assay 3 LDL uptake potency
PCSK9, sequence (Q8NBP7 with tags, fused parts or gaps V474I/G670E): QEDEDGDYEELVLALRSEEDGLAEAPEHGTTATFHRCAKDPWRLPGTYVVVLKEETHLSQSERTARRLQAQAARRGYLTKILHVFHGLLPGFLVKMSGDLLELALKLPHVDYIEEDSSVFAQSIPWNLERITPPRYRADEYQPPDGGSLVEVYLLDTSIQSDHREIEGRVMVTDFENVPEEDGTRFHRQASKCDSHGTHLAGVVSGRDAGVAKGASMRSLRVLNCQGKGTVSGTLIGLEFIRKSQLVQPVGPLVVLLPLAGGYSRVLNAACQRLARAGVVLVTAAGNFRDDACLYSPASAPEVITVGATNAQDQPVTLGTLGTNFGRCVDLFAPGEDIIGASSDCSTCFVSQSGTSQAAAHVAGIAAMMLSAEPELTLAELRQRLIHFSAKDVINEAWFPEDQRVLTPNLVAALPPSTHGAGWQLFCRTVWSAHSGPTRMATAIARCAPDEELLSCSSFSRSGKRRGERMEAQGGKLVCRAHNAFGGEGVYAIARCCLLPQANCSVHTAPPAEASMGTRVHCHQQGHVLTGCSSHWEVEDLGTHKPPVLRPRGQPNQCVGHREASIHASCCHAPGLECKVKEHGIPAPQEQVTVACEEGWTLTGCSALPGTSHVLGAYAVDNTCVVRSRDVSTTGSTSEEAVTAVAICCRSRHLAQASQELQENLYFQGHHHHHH
Outline: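 HepG2 cells were plated for 24 h, then exposed for 24 h at 37 °C to compounds (half-log series, 10 μM top) with 125 nM exogenous PCSK9. pHrodo Red-LDL ([…]) uptake was then imaged by fluorescence at 4 h and 24 h. Signal was normalized as % effect between DMSO and 100 nM evolocumab, with a four-parameter logistic fit.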

GSK3β (Glycogen synthase kinase-3 beta), sequence (P49841 whole entry): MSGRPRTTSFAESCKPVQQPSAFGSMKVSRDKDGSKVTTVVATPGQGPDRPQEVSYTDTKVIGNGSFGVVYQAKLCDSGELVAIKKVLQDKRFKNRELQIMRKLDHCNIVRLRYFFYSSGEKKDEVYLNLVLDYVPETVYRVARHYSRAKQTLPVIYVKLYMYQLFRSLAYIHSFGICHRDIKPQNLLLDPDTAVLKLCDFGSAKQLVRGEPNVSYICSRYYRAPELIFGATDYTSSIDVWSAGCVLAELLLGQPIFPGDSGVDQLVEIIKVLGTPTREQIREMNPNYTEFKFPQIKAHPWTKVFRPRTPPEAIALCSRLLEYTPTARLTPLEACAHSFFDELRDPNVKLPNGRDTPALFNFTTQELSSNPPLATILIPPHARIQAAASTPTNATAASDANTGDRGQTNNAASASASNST

| SMILES | IC50 [1] [µM] | EC50 (PCSK9) [nM] |
| --- | --- | --- |
| Cc1cnc(N[C@H]2CC[C@H](Nc3ccc(-n4cccc(C(F)(F)F)c4=O)cn3)C2)nn1 [Example 135, 6′-(((1S,3S)-3-((6-Methyl-1,2,4-triazin-3-yl)amino)cyclopentyl)amino)-3-(trifluoromethyl)-2H-[1,3′-bipyridin]-2-one] | > 10 | 100 |
| Cc1cnc(N[C@H]2CC[C@H](Nc3ccc(-n4cccc(OC(F)F)c4=O)cn3)C2)nn1 [Example 187, 3-(Difluoromethoxy)-6′-(((1S,3S)-3-((6-methyl-1,2,4-triazin-3-yl)amino)cyclopentyl)amino)-2H-[1,3′-bipyridin]-2-one] | 3.78 | 100 |
| Cc1cnc(N[C@H]2CC[C@H](Nc3ccc(-n4c(=O)ccc5cccnc54)cn3)C2)nn1 [Example 197, 1-(6-(((1S,3S)-3-((6-Methyl-1,2,4-triazin-3-yl)amino)cyclopentyl)amino)pyridin-3-yl)-1,8-naphthyridin-2(1H)-one] | > 10 | 100 |
| Cc1cnc(N[C@H]2CC[C@H](Nc3ccc(-n4cccc(-c5cnn(C)c5)c4=O)cn3)C2)nn1 [Example 198, 6′-(((1S,3S)-3-((6-Methyl-1,2,4-triazin-3-yl)amino)cyclopentyl)amino)-3-(1-methyl-1H-pyrazol-4-yl)-2H-[1,3′-bipyridin]-2-one] | > 10 | 100 |
| Cc1cnc(N[C@H]2CC[C@H](Nc3ccc(-n4c(=O)n(C)c5ccc(C#N)cc54)cn3)C2)nn1 [Example 210, 1-Methyl-3-(6-(((1S,3S)-3-((6-methyl-1,2,4-triazin-3-yl)amino)cyclopentyl)amino)pyridin-3-yl)-2-oxo-2,3-dihydro-1H-benzo[d]imidazole-5-carbonitrile] | > 10 | 100 |
| Cc1cnc(N[C@H]2CC[C@H](Nc3ccc(-n4c(=O)n(C)c5cccnc54)cn3)C2)nn1 [Example 212, 1-Methyl-3-(6-(((1S,3S)-3-((6-methyl-1,2,4-triazin-3-yl)amino)cyclopentyl)amino)pyridin-3-yl)-1,3-dihydro-2H-imidazo[4,5-b]pyridin-2-one] | > 10 | 100 |
| Cc1cnc(N[C@H]2CC[C@H](Nc3ccc(-n4nccc(Cl)c4=O)cn3)C2)nn1 [Example 221, 4-Chloro-2-(6-(((1S,3S)-3-((6-methyl-1,2,4-triazin-3-yl)amino)cyclopentyl)amino)pyridin-3-yl)pyridazin-3(2H)-one] | > 10 | 300 |
